From patent publication US9980945B2, “Benzoisoxazole-substituted compounds as MGLUR4 allosteric potentiators, compositions, and methods of treating neurological dysfunction” (Vanderbilt University, priority 2015, dated 2018)

molecular target: mGluR4 (UniProt Q14833); test: mGluR4 potentiation assay (EC50 for potentiation at EC20 agonist; fluorometric plate reader, Ca2+ or thallium dye); assay type: cell-based; conditions: potentiation of mGluR4; species of receptor not given
Procedure, shortened: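 CHO cells expressing human mGluR4, or HEK cells co-expressing rat mGluR4 and GIRK, loaded with Ca2+ or thallium dye. Potentiation EC50 and maximal potentiation from non-linear curve fitting; agonist-shift mode also run.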

| EC50 [nM] | SMILES |
| --- | --- |
| > 10000 | CC(C)(C)Cc1noc2cc(Nc3n[nH]c4cc(F)cnc34)cc(F)c12 [Example 151, 3-(2,2-dimethylpropyl)-4-fluoro-N-(6-fluoro-1H-pyrazolo[4,3-b]pyridin-3-yl)-1,2-benzoxazol-6-amine] |
| 976 | CC(C)c1noc2cc(Nc3n[nH]c4cccnc34)ccc12 [Example 155, 3-isopropyl-N-(1H-pyrazolo[4,3-b]pyridin-3-yl)-1,2-benzoxazol-6-amine] |
| > 30000 | CC(C)(C)Cc1noc2c(F)c(Nc3n[nH]c4cccnc34)ccc12 [Example 163, 3-(2,2-dimethylpropyl)-7-fluoro-N-(1H-pyrazolo[4,3-b]pyridin-3-yl)-1,2-benzoxazol-6-amine] |
| > 30000 | CC(C)(C)Cc1noc2c(F)c(Nc3n[nH]c4nccnc34)ccc12 [Example 164, 3-(2,2-dimethylpropyl)-7-fluoro-N-(1H-pyrazolo[3,4-b]pyrazin-3-yl)-1,2-benzoxazol-6-amine] |
| > 30000 | CC(C)(C)Cc1noc2cc(Nc3n[nH]c4cccnc34)c(F)cc12 [Example 167, 3-(2,2-dimethylpropyl)-5-fluoro-N-(1H-pyrazolo[4,3-b]pyridin-3-yl)-1,2-benzoxazol-6-amine] |
| 801 | CC(C)(C)Cc1noc2cc(Nc3n[nH]c4cccnc34)cnc12 [Example 171, 3-(2,2-dimethylpropyl)-N-(1H-pyrazolo[4,3-b]pyridin-3-yl)isoxazolo[4,5-b]pyridin-6-amine] |
| 767 | Fc1cncc(OCc2noc3cc(Nc4n[nH]c5cccnc45)ccc23)c1 [Example 176, 3-[(5-fluoro-3-pyridyl)oxymethyl]-N-(1H-pyrazolo[4,3-b]pyridin-3-yl)-1,2-benzoxazol-6-amine] |
| 890 | FCCc1noc2cc(Nc3n[nH]c4cccnc34)ccc12 [Example 177, 3-(2-fluoroethyl)-N-(1H-pyrazolo[4,3-b]pyridin-3-yl)-1,2-benzoxazol-6-amine] |
| 1710 | CC(c1noc2cc(Nc3n[nH]c4cccnc34)ccc12)C(F)F (centres unmarked) [Example 178, 3-(2,2-difluoro-1-methyl-ethyl)-N-(1H-pyrazolo[4,3-b]pyridin-3-yl)-1,2-benzoxazol-6-amine] |
| 1990 | CCC(F)(F)c1noc2cc(Nc3n[nH]c4cccnc34)ccc12 [Example 179, 3-(1,1-difluoropropyl)-N-(1H-pyrazolo[4,3-b]pyridin-3-yl)-1,2-benzoxazol-6-amine] |
| 1500 | CC(C)(C)CNC(c1noc2cc(Nc3n[nH]c4cccnc34)ccc12)C(F)(F)F (centres unmarked) [Example 181, 3-[1-(2,2-dimethylpropylamino)-2,2,2-trifluoro-ethyl]-N-(1H-pyrazolo[4,3-b]pyridin-3-yl)-1,2-benzoxazol-6-amine; 2,2,2-trifluoroacetic acid] |

The next lines start with the compound.

| SMILES | EC50 [nM] |
| --- | --- |
| O=C(NC(c1noc2cc(Nc3n[nH]c4cccnc34)ccc12)C(F)(F)F)c1nccs1 (centres unmarked) [Example 153, N-[2,2,2-trifluoro-1-[6-(1H-pyrazolo[4,3-b]pyridin-3-ylamino)-1,2-benzoxazol-3-yl]ethyl]thiazole-carboxamide] | 1390 |
| CC(C)c1noc2cc(Nc3n[nH]c4ncccc34)ccc12 [Example 154, 3-isopropyl-N-(1H-pyrazolo[3,4-b]pyridin-3-yl)-1,2-benzoxazol-6-amine] | 586 |
| CN(Cc1cccnc1)C(=O)Cc1noc2cc(Nc3n[nH]c4cccnc34)ccc12 [Example 157, N-methyl-2-[6-(1H-pyrazolo[4,3-b]pyridin-3-ylamino)-1,2-benzoxazol-3-yl]-N-(3-pyridylmethyl)acetamide] | 1750 |
| CN(C(=O)Cc1noc2cc(Nc3n[nH]c4cccnc34)ccc12)c1cccnc1 [Example 158, N-methyl-2-[6-(1H-pyrazolo[4,3-b]pyridin-3-ylamino)-1,2-benzoxazol-3-yl]-N-(3-pyridyl)acetamide] | 1170 |
| CN(Cc1ccncc1)C(=O)Cc1noc2cc(Nc3n[nH]c4cccnc34)ccc12 [Example 160, N-methyl-2-[6-(1H-pyrazolo[4,3-b]pyridin-3-ylamino)-1,2-benzoxazol-3-yl]-N-(4-pyridylmethyl)acetamide] | 3430 |
| O=C(Cc1noc2cc(Nc3n[nH]c4cccnc34)ccc12)N1CCN(CC(F)(F)F)CC1 [Example 161, 2-[6-(1H-pyrazolo[4,3-b]pyridin-3-ylamino)-1,2-benzoxazol-3-yl]-1-[4-(2,2,2-trifluoroethyl)piperazin-1-yl]ethanone] | 1870 |
| O=C(Cc1noc2cc(Nc3n[nH]c4cccnc34)ccc12)N1CCCC1c1ccccn1 (centres unmarked) [Example 162] | > 10000 |
| CC(c1ccccn1)N(C)C(=O)Cc1noc2cc(Nc3n[nH]c4cccnc34)ccc12 (centres unmarked) [Example 165, N-methyl-2-[6-(1H-pyrazolo[4,3-b]pyridin-3-ylamino)-1,2-benzoxazol-3-yl]-N-[1-(2-pyridyl)ethyl]acetamide] | 2300 |
| COc1ncc(Cc2noc3cc(Nc4n[nH]c5cccnc45)ccc23)cn1 [Example 166, 3-[(2-methoxypyrimidin-5-yl)methyl]-N-(1H-pyrazolo[4,3-b]pyridin-3-yl)-1,2-benzoxazol-6-amine] | 387 |
| c1cncc(OCc2noc3cc(Nc4n[nH]c5cccnc45)ccc23)c1 [Example 169, N-(1H-pyrazolo[4,3-b]pyridin-3-yl)-3-(3-pyridyloxymethyl)-1,2-benzoxazol-6-amine] | > 30000 |
| Cc1ccc(OCc2noc3cc(Nc4n[nH]c5cccnc45)ccc23)cn1 [Example 175, 3-[(6-methyl-3-pyridyl)oxymethyl]-N-(1H-pyrazolo[4,3-b]pyridin-3-yl)-1,2-benzoxazol-6-amine] | 588 |
| CCCCNC(c1noc2cc(Nc3n[nH]c4cccnc34)ccc12)C(F)(F)F (centres unmarked) [Example 180, 3-[1-(butylamino)-2,2,2-trifluoro-ethyl]-N-(1H-pyrazolo[4,3-b]pyridin-3-yl)-1,2-benzoxazol-6-amine; 2,2,2-trifluoroacetic acid] | 810 |
